Measured values as given in article PMC5358767 (PLoS ONE, 2017).
Counter-ions that a name gives are not always drawn. Like-named read-outs stand apart in the source and are kept apart here. abz = not defined here; dnp = not defined here

What was measured:
S. suis = assay: microbe, parasite or virus in culture; design: species or system Streptococcus suis; microtiter broth dilution MIC of natural products against S. suis
Method: To find potent Ss-SrtA inhibitors, the 11 natural products listed in S1 Table were selected for experimental validation using purified recombinant Ss-SrtA. […] Using the microtiter broth dilution method, we measured the MIC values of all these natural products to be >500 μM (S1 Table). […] S. suis strains were cultured in Todd–Hewitt broth (THB; Oxoid Ltd.) without shaking or Todd–Hewitt broth agar plates at 37°C with 5% CO2. E. coli and S. aureus strains were grown in Luria-Bertani (LB) medium at 37°C with shaking at 200 rpm or plated on LB agar. If required, cultures were supplemented with antibiotics at the following concentrations: erythromycin, 3 μg ml^−1 for S. aureus; ampicillin, 100 μg ml^−1 for E. coli.

Sortase A (Ss-SrtA) = molecular target: T1, Sortase A (Ss-SrtA) (Streptococcus suis, UniProt Q8VUP7); assay: fluorescence-quenched peptide (abz-LPATG-dnp) hydrolysis assay with recombinant enzyme; assay type: biochemical
T1 construct: residues N24-Q235, C-terminal His-tag

Sortase A (Sa-SrtA) [1] = molecular target: T2, Sortase A (Sa-SrtA) (Staphylococcus aureus, UniProt Q2FV99); assay: SrtA-dependent fluorescent peptide incorporation in live cells, flow cytometry; […] inhibition at […]; assay type: cell-based
T2 construct: endogenous, S. aureus Newman D2C cells

Sortase A (Sa-SrtA) [2] = molecular target: T2, Sortase A (Sa-SrtA); assay: as above; assay type: cell-based; remark: listed apart in the source
Sortase A (Sa-SrtA) [3] = molecular target: T2, Sortase A (Sa-SrtA); assay: as above; assay type: cell-based; remark: listed apart in the source
[4] = molecular target: Streptococcus suis sortase A (recombinant, residues N24-Q235 with C-terminal His-tag) (Streptococcus suis)
[5] = Streptococcus suis, read-out: MIC

T1 sequence (Q8VUP7 entry or part of it): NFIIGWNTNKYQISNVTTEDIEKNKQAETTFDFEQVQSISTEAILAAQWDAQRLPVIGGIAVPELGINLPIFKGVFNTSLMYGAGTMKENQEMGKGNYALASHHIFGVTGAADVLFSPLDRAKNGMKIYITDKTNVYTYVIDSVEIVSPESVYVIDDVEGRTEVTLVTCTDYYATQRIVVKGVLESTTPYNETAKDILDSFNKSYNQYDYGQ
T2 sequence (Q2FV99 whole entry): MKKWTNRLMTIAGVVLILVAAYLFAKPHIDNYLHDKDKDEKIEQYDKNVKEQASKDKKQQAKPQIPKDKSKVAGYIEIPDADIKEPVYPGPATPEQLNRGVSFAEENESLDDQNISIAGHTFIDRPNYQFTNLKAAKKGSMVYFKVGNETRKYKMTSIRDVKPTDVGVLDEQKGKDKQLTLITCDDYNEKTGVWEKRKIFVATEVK

| Molecule | MIC (S. suis; [5]) | IC50 (Sortase A (Ss-SrtA)) | other results |
| --- | --- | --- | --- |
| O=c1cc(-c2ccccc2)oc2cc(O)c(O)c(O)c12 [Baicalein] | > 500 µM |  |  |
| COc1c(O)cc(O)c2c(=O)cc(-c3ccccc3)oc12 [Wogonin] | > 500 µM |  |  |
| C[C@@H]1O[C@@H](O[C@@H]2[C@@H](O)[C@H](OCCc3ccc(O)c(O)c3)O[C@H](CO)[C@H]2OC(=O)/C=C/c2ccc(O)c(O)c2)[C@H](O)[C@H](O)[C@H]1O [acteoside] | > 500 µM | 36.3 ± 1.3 µM | inhibition at 200 µM (Sortase A (Sa-SrtA) [1]): 86% |
| O=C(O)[C@H]1O[C@@H](Oc2cc3oc(-c4ccccc4)cc(=O)c3c(O)c2O)[C@H](O)[C@@H](O)[C@@H]1O [baicalin] | > 500 µM | 85.4 ± 1.5 µM | inhibition at 200 µM (Sortase A (Sa-SrtA) [2]): 45% |
| C[C@@H]1O[C@@H](OC[C@H]2O[C@@H](Oc3c(-c4ccc(O)c(O)c4)oc4cc(O)cc(O)c4c3=O)[C@H](O)[C@@H](O)[C@@H]2O)[C@H](O)[C@H](O)[C@H]1O [Rutin] | > 500 µM |  |  |
| O=c1c(O)c(-c2ccc(O)c(O)c2)oc2cc(O)cc(O)c12 [quercetin] | > 500 µM | < 100 µM |  |
| COc1ccc2cc3[n+](cc2c1OC)CCc1cc2c(cc1-3)OCO2 [berberine hydrochloride] | > 500 µM | < 100 µM |  |
| O=c1c(O[C@@H]2O[C@H](CO)[C@@H](O)[C@H](O)[C@H]2O)c(-c2ccc(O)c(O)c2)oc2cc(O)cc(O)c12 [isoquercitrin] | > 500 µM |  | inhibition at 200 µM (Sortase A (Sa-SrtA) [3]): 28% |
| CCCCC[C@H](O)CC(=O)CCc1ccc(O)c(OC)c1 [6-Gingerol] | > 500 µM |  |  |
| COc1cc(/C=C/C(=O)CC(=O)/C=C/c2ccc(O)c(OC)c2)ccc1O [curcumin] | > 500 µM | < 100 µM |  |
| O=c1cc(-c2ccc(O)cc2)oc2c([C@@H]3O[C@H](CO)[C@@H](O)[C@H](O)[C@H]3O)c(O)cc(O)c12 [Vitexin] |  |  | MIC (S. suis; inhibitor): >500 µM |
| abz-LPATG-dnp (reading uncertain; also: printed as abz-LPATG-dnp) [abz-LPATG-dnp (internally quenched fluorescent peptide substrate)] |  |  | Km for the hydrolysis of abz-LPATG-dnp by purified Ss-SrtA (fluorescence increase of the quenched peptide; substrate 0.375-64 μM; 50 mM Tris·HCl, 150 mM NaCl, pH 7.5, 37°C) [4]: 6.7 μM |
